Data on one compound can be found in article PMC10721329, “Quisinostat is a brain-penetrant radiosensitizer in glioblastoma” (JCI Insight, 2023).

The subject of one series is U87 GBM cell line. The experiment in a line: CellTiter-Glo dose-response cell viability assay. It counts as cell-based, human. How it is done: QST (JNJ-26481585) is a second-generation hydroxamic acid harboring remarkable selectivity toward class I HDACs, with a biochemical IC50 of 0.1 nM for HDAC1 ([13]). […] To determine the cytotoxic effects of QST, we performed a dose-titration cell viability assay in 7 patient-derived GSC lines (BT145, GB187, GB239, GB282, GB71, GB82, and GB126) and 1 long-term serum-grown human GBM cell line (U87). Because GBMs display a high degree of intratumoral heterogeneity, we used GSCs derived from both primary and recurrent GBMs that harbored distinct genetic mutations or aberrations, growth rates, MGMT promoter methylation status, and gene expression profiles (Supplemental Figure 1; supplemental material available online with this article; https://doi.org/10.1172/jci.insight.167081DS1). Cell lines were treated with various concentrations of QST (10–1000 nM), and cell viability was measured 3–5 days later (Figure 1, A and B). […] Treatment with QST at the IC50 induced significant inhibition of proliferation (Ki67) and an increase in programmed cell death (cleaved caspase 3) in 2 different GSC lines (Figure 1, C and D). Additional analyses confirmed that QST induces apoptosis after short-term treatment through increased staining of the apoptotic marker annexin V (Figure 2A) and cell cycle arrest (in G2- or S-phase; Figure 2B and Supplemental Figure 1B).
(§1) GSCs were seeded in laminin-coated tissue culture–treated 96-well plates (clear bottom, white plate; Corning) at a density of 1000–5000 cells per well (cell line dependent) in GSC media. U87-MG were seeded using their normal growth conditions without laminin (10% bovine calf serum in DMEM). All cells were incubated at 37°C and allowed to adhere overnight. The next day, cells were treated with incremental concentrations of QST (Selleckchem; 0, 10, 25, 50, 100, 250, 500, and 1000 nM) diluted in media. Cells treated without QST were treated with DMSO diluted in media. Following treatment with QST, cells were grown for 3 to 5 days (cell line dependent), and cell viability was measured and quantified. All cell viability measurements were performed using the CellTiter-Glo luminescent cell viability assay (Promega) following the manufacturer’s instructions. For the sulforhodamine B colorimetric assay for cytotoxicity, the protocol was performed as described elsewhere ([33]). All cell viability results represent the mean of at least 3 biological replicates, each containing 3 technical replicates.

Series [1] can be described thus: Dose-response cell viability assay in normal astrocytes. It counts as cell-based, human. The note with it: human, primary human astrocytes (NHA), NHA, 3 days, read-out: Cell viability (fraction of DMSO control). How it is done: as §1
(§2) Supplemental Figure 5. QST induces cell death in tumor tissue but not surrounding normal
(§3) brain tissue in vivo. (A) Dose-response curves with QST (10–1000 nM) in primary human
(§4) astrocytes. Cell viability 3 days after treatment with QST. […]

Series [2] relates to primary human astrocytes (NHA). The series is described as above. In kind it is cell-based. Particulars: for Cell viability (fraction of DMSO control): NHA, 3 days. How it is done: as §1, §2, §3, §4

Values joined by “and” are separate entries in the source; they are usually repeats but may differ in a detail not shown here. Equal values may be shown once.

What is called viability is a per cent measure of how many cells are alive, often set against a control. The IC50 is the concentration needed to halve the response being measured. A lower IC50 goes with higher potency. Take `Cn1cc(CNCC2CCN(c3ncc(C(=O)NO)cn3)CC2)c2ccccc21` [QST, quisinostat]: the viability at 0.01 µM in the series on U87 GBM cell line (Homo sapiens, U87LN, QST 10 nM (log[nM] 1), read-out: Cell viability (fraction of DMSO control)) is 83.5%. Further, the viability at 0.025 µM in the series with U87 GBM cell line (Homo sapiens, U87LN, QST 25 nM (log[nM] 1.39794), read-out: Cell viability (fraction of DMSO control)) amounted to 56.7%. Also, the viability at 0.05 µM with U87 GBM cell line (Homo sapiens, U87LN, QST 50 nM (log[nM] 1.69897), read-out: Cell viability (fraction of DMSO control)) was 31.6%. Also, the viability at 0.1 µM with U87 GBM cell line (Homo sapiens, U87LN, QST 100 nM (log[nM] 2), read-out: Cell viability (fraction of DMSO control)) was 21.5%. For the same compound, the viability at 0.25 µM with U87 GBM cell line (Homo sapiens, U87LN, QST 250 nM (log[nM] 2.39794), read-out: Cell viability (fraction of DMSO control)) was found to be 12.8%. In addition, in the series with U87 GBM cell line (Homo sapiens, U87LN, QST 500 nM (log[nM] 2.69897), read-out: Cell viability (fraction of DMSO control)), the viability at 0.5 µM amounted to 9.84%. Moreover, the viability at 1 µM in the series on U87 GBM cell line (Homo sapiens, U87LN, QST 1000 nM (log[nM] 3), read-out: Cell viability (fraction of DMSO control)) was determined as 8.54%. Inhibition in the series with U87 GBM cell line (Homo sapiens, U87, 3-5 days) was half-maximal at 28 nM (IC50). Further, the “Cell viability (fraction of DMSO control)” value was 0.852 and 0.8354 with U87 GBM cell line (U87LN, QST 10 nM (log[nM] 1)); 0.6316 and 0.5286 in the series on U87 GBM cell line (U87LN, QST 25 nM (log[nM] 1.39794)); 0.3812 and 0.3792 in the series on U87 GBM cell line (U87LN, QST 50 nM (log[nM] 1.69897)); 0.2379 and 0.236 in the series with U87 GBM cell line (U87LN, QST 100 nM (log[nM] 2)); 0.1476 and 0.1204 in the series with U87 GBM cell line (U87LN, QST 250 nM (log[nM] 2.39794)); 0.1063 and 0.09789 in the series on U87 GBM cell line (U87LN, QST 500 nM (log[nM] 2.69897)). The “Cell viability (fraction of DMSO control)” value is 0.08873 and 0.08769 with U87 GBM cell line (U87LN, QST 1000 nM (log[nM] 3)); 0.6995 and 0.7125 in series [2] (QST 10 nM (log[nM] 1)); 0.5597 and 0.5623 in series [2] (QST 25 nM (log[nM] 1.39794)); 0.4582 and 0.5002 in series [2] (QST 50 nM (log[nM] 1.69897)); 0.3562 and 0.4332 in series [2] (QST 100 nM (log[nM] 2)). The viability at 3 days, 10 nM in series [1] (QST 10 nM (log[nM] 1)) is 60.9%. The viability at 3 days, 25 nM in series [1] (QST 25 nM (log[nM] 1.39794)) was determined as 46.7%. Besides, the viability at 3 days, 50 nM in series [1] (QST 50 nM (log[nM] 1.69897)) came out at 36.5%. In addition, in series [1] (QST 100 nM (log[nM] 2)), the viability at 3 days, 100 nM was 27.2%. Further, the “sensitivity of primary human astrocytes to QST compared with GSCs” value in series [2] (in vitro dose response assay) was “equally sensitive”.
